Experimental data: patent US11926826B2, “Twist signaling inhibitor compositions and methods of using the same” (City of Hope, priority 2016, dated 2024)
[iaB] = inverted abasic ribose cap; [2sU] = 2-thio-2'-deoxyuridine; d = 2'-deoxy (DNA); m = 2'-O-methyl; r = 2'-OH (RNA)

What was measured:
Ov8GFP-TWIST1 cells = assay: SRB assay, cisplatin plus PI3K inhibitor LY294002; format: cell-based, human
Experimental: Sulphorhodamine B assays. Cells were plated at 5,000 per well in normal medium in 96 well plates (100 μL/well), n=6 per drug concentration, per condition. Cells were allowed to adhere overnight, and then cisplatin was added. Cisplatin was prepared at 2× concentration in 100 μL normal medium, and then added to cells to yield 200 μL at 1×. Following 3 day incubation with cisplatin, medium was removed and cells were fixed with 10% trichloroacetic acid (TCA, 100 μL/well) at 4° C. for 1 hr. TCA was then removed and wells were rinsed with 200 μl water and allowed to air dry 10 min. […] Plates were air dried and excess SRB adhered to the walls of the wells was removed with a cotton swab. Finally, SRB was solubilized in 10 mM Tris base (200 μL/well) and absorbance was measured at 570 nm on a SpectraMax Plus plate reader (Molecular Devices, Sunnyvale, CA). Readings for each condition were normalized to untreated wells from the same condition. Cisplatin concentrations were adjusted to fit experimental demands. […] For Akt studies, the PI3K inhibitor LY294002 was used to inhibit Akt activation (FIGS. 25A-25D), and was obtained from Cell Signaling Technology (Danvers, MA).

TWIST [1] = assay: TWIST knockdown after MSN delivery of siRNA in ovarian cancer cell lines; format: cell-based
Experimental: MSN design and delivery. Mesoporous silica nanoparticles (MSNs) were synthesized utilizing the sol-gel method as described previously. First, 250 mg 95% cetyltrimethylammonium bromide (CTAB) was dissolved in 120 ml of water with 875 μl 2M sodium hydroxide solution, at 80° C. Next, 1.2 ml of 98% tetraethylorthosilicate was added. After 15 min, 300 μl of 42% 3-(trihydroxysilyl) propyl methylphosphonate was added, and the mixture was stirred 2 hr. Particles were collected using centrifugation and washed with methanol. Acidic methanol was then used to remove any remaining CTAB surfactants. Zeta potential at 50 μg/mL was 43.75 mV [14]. All chemicals were obtained from Aldrich (St. Louis, MO). Particles were ˜120 nm in diameter, with 2.5 nm pores. Low molecular weight (1.8 kD branched polymer) polyethyleneimine (PEI) was electrostatically attached to the particle surface to provide a positive change to attract negatively charged siRNA [21]. To complex siRNA for in vitro experiments, 10 μl siRNA at 10 μM was mixed with 70 ul MSNs at 500 μg/ml and 20 μl water, and the mixture was incubated overnight at 4° C. on a roller. The following day, 100 μl of the MSN-siRNA complexes was added to each well of a 6-well plate containing 1900 μl normal medium.
(§1) Western Blotting. Following siRNA treatment, cells were pelleted and lysed in RIPA buffer. Protein concentration was determined by BCA assay (Thermo Fisher). Following SDS-PAGE, protein was transferred to Amersham PVDF membrane (Genesee Scientific) using a BioRad Trans-Blot SD semi-dry transfer unit. Blots were then blocked in milk for one hour at room temperature or overnight at 4° C. Incubation with primary antibody took place for one hour at room temperature or overnight at 4° C. Antibodies were diluted in 5% milk, with 0.1-0.2% Tween-20. Antibodies used were TWIST 2c1a (Santa Cruz Biotechnology, Dallas, TX) at 1:250-1:500 dilution, β-Actin, A1978 (Sigma Aldrich, St. Louis, MO) at 1:2500-1:5000 dilution; and Horseradish Peroxidase (HRP) conjugated anti-mouse secondary antibodies. […]

TWIST1 [2] = assay: TWIST1 knockdown after Lipofectamine 2000 transfection of siRNA in MDA-MB-435S cells (western blot); format: cell-based, human; conditions: unmodified vs passenger-strand modified si419
Experimental: Transient transfection of MDA-MB-435S GFP+ffluc was carried out using LIPOFECTAMINE® 2000 (Thermo Fisher Scientific, Waltham, MA) according to the manufacturer's instructions. LIPOFECTAMINE® 2000 transfection was used to confirm the functionality of the siRNA (si419 and si494) prior to testing their efficacy with MSNs. Transfection of siRNA with MSNs was carried out by incubating the MSNs with the siRNA overnight at 4° C. while rotating the tube constantly. The mixture consisted of 7 parts MSN (diluted to 500 ng/ul in sterile PBS) to 1 part siRNA (diluted to 10 uM). The final concentration for of MSNs and siRNA applied to cells was 17.5 ng/ul and 50 nM, respectively.
Western Blot. Following siRNA treatment described above, cells were lifted from tissue culture wells with 0.25% trypsin, pelleted, and lysed in RIPA buffer. Protein concentration was determined using a BCA Assay (Thermo Fisher Scientific). A total of 30 μg of protein per lane was run on 4% stacking and 12% resolving polyacrylamide gels. Following gel electrophoresis, protein was transferred to Immobilon-P PVDF membrane (Millipore, Billerica, MA) using a Trans-Blot SD Semi-Dry Transfer Cell (Bio-Rad, Hercules, CA). Membranes were then blocked with 5% dry milk dissolved in 1×PBS with 0.1% Tween-20. Antibodies were diluted in blocking buffer (1:250 for anti-TWIST1 and 1:2,500 for anti-Actin). […]

Vimentin mRNA = assay: qPCR after YTZ3-15 delivery of siTwist in SUM 1315: Vimentin; format: cell-based, human; conditions: delivered via YTZ3-15; after one day
Experimental: (§2) Cell Culture, Transfection, and Stable Cell Line Production. SUM 1315 breast cancer cells were obtained from ATCC (Manassas, VA). Cells were maintained at 37° C., 5% CO2, and 90% humidity in a tissue culture incubator. Media for SUM 1315 cells consisted of a 50-50 mixture of DMEM and F12 media, supplemented with 5 μg/ml insulin, 10 ng/ml EGF, 5% fetal bovine serum, and 1% penicillin/streptomycin. Cells were passaged using 0.25% trypsin (Genesee Scientific, San Diego, CA) every 2-3 days as they reached confluency. […]
(§3) Quantitative PCR. […] RNA quantity and quality was measured and analyzed (with 260/280 nm and 260/230 nm spectra measurements) using a NanoDrop ND-1000 (Thermo Fisher Scientific, Waltham, MA). […] Quantitative RT-PCR was performed in quadruplicate using Maxima SYBR Green Master Mix (Thermo Fisher Scientific, Waltham, MA) in 25 μl reactions. […] Data were analyzed using Bio-Rad iQ5 software using the 2^−ΔΔ^Ct method and normalized to Actin. […]

N-Cadherin mRNA = assay: qPCR after YTZ3-15 delivery of siTwist in SUM 1315: N-Cadherin; format: cell-based, human; conditions: delivered via YTZ3-15; after seven days
Experimental: as §2, §3

TWIST [3] = assay: TWIST knockdown after YTZ3-15 delivery of siRNA in ovarian cancer cell lines; format: cell-based
Experimental: PAMAM dendrimer design and delivery. The polyamidoamine (PAMAM) dendrimer used in this study is the […] third generation dendrimer, illustrated in FIG. 16A and previously described. To complex the dendrimer with siRNA, YTZ3-15 at 240 μM was mixed with […] in OptiMEM Low Serum Medium (Thermo Fisher). Upon complexing with siRNA, dendrimers form micelle structures with siRNA at the surface and the hydrophobic tails sequestered in the core (FIG. 16B). 14.6 μl YTZ3-15 and 10 μl siRNA were used per well of a 6-well plate. Final concentrations of YTZ3-15 and siRNA once added to cells were 1.75 μM and 50 nm, respectively. Where indicated, 3.5 μM YTZ3-15 and 100 nm siRNA were used for Ovcar8.
Western Blotting. Following siRNA treatment, cells were pelleted and lysed in RIPA buffer. Protein concentration was determined by BCA assay (Thermo Fisher). Following SDS-PAGE, protein was transferred to Amersham PVDF membrane (Genesee Scientific) using a BioRad Trans-Blot SD semi-dry transfer unit. Blots were then blocked in milk for one hour at room temperature or overnight at 4° C. Incubation with primary antibody took place for one hour at room temperature or overnight at 4° C. Antibodies were diluted in 5% milk, with 0.1-0.2% Tween-20. Antibodies used were TWIST 2c1a (Santa Cruz Biotechnology, Dallas, TX) at 1:250-1:500 dilution, β-Actin, A1978 (Sigma Aldrich, St. Louis, MO) at 1:2500-1:5000 dilution; and Horseradish Peroxidase (HRP) conjugated anti-mouse secondary antibodies. For film-based westerns, Blue Devil film (Genesee Scientific) and ECL Plus chemiluminescent substrate (Thermo Fisher) were used to detect protein. For digital westerns, the Syngene Pxi4 digital blot imager and Michigan Diagnostics FemtoGlow chemilumescent substrate were used.

TWIST1 [4] = assay: TWIST1 knockdown after Lipofectamine 2000 transfection in SUM 1315; format: cell-based, human
Experimental: as §2, §3
Western Blot. […] Cells were pelleted, lysed in RIPA buffer, and protein concentration was determined using the BCA Assay (Thermo Fisher Scientific, Waltham, MA). […]

TWIST [5] = assay: TWIST knockdown after Lipofectamine 2000 transfection in A2780R (western blot); format: cell-based; conditions: over three days post transfection
Experimental: Cell Culture. A2780R and all derivatives of Ovcar8 were grown in RPMI 1640 (Genesee Scientific, San Diego, CA) in a tissue culture incubator at 37° C., 5% CO2, and 90% humidity. Growth medium was supplemented with 10% fetal bovine serum and 1% penicillin/streptomycin. Cells were passaged every 2-4 days using 0.25% trypsin (Genesee Scientific). Where indicated, cells were transfected with Lipofectamine 2000 (Thermo Fisher, Waltham, MA) according to the manufacturer's instructions. A2780R cells are a cisplatin resistant derivative of A2780.
as §1

O=c1cc(N2CCOCC2)oc2c(-c3ccccc3)cccc12 [LY294002]
greater cell death vs cisplatin alone (Ov8GFP-TWIST1 cells; combination with 5 μM cisplatin): 15%
greater cell death vs cisplatin alone (Ov8GFP-TWIST1 cells; combination with 10 μM cisplatin): 25%

si419H: chemically modified si419 duplex: 2′-O-methyl and inverted abasic ribose on passenger strand (SEQ ID NO:11; guide SEQ ID NO:12) (sense GGACAAGCUGAGCAAGAUU; antisense AAUCUUGCUCAGCUUGUCCUU; siRNA; sense: sugars from the 5' end r17 m2, [iaB] at 5' end, 3' end, backbone not given here; antisense: sugars from the 5' end r16 d1 r4, [2sU] at 17, backbone not given here)
TWIST knockdown (TWIST [1]; Ovcar8-IP, MSNs): robust knockdown of TWIST even after 24 hours
knockdown (efficiency, FIG. 6) (TWIST1 [2]): approximately 80%

si494: anti-TWIST siRNA; passenger 5′-GCGACGAGCUGGACUCCAA-3′ (SEQ ID No: 3), guide 5′-UUGGAGUCCAGCUCGUCGCUU-3′ (SEQ ID No: 4) (listed as RNA, chemistry not fully specified)
Vimentin mRNA level (Vimentin mRNA): nearly undetectable
N-Cadherin mRNA decrease (N-Cadherin mRNA): approximately 90%
TWIST knockdown (TWIST [3]; A2780R): successfully knocked down TWIST
TWIST knockdown (TWIST [3]; Ovcar8, double the usual dose (100 nM siRNA)): minimal
TWIST knockdown (TWIST [1]; A2780R and Ovcar8, loaded onto MSNs): robust TWIST knockdown lasting one week post transfection
TWIST1 knockdown (protein and mRNA) (TWIST1 [4]): slightly more knockdown than siTwistA
TWIST expression (TWIST [5]): completely inhibit TWIST expression
